{"source": "patent US4987131A", "about": "“4H-triazolo[4,3-a][1,4]benzodiazepines” (Roussel Uclaf, priority 1985, dated 1991)", "key": {"[1]": {"target": "T1, cyclo-oxygenase contained in a microsomal preparation of seminal vesicles of a bull (Bos taurus, UniProt O62664)", "T1 construct": "cyclo-oxygenase contained in a microsomal preparation of seminal vesicles of a bull; from tissue; host or cells: bull seminal vesicles, microsomal preparation", "T1 sequence (O62664 25-600)": "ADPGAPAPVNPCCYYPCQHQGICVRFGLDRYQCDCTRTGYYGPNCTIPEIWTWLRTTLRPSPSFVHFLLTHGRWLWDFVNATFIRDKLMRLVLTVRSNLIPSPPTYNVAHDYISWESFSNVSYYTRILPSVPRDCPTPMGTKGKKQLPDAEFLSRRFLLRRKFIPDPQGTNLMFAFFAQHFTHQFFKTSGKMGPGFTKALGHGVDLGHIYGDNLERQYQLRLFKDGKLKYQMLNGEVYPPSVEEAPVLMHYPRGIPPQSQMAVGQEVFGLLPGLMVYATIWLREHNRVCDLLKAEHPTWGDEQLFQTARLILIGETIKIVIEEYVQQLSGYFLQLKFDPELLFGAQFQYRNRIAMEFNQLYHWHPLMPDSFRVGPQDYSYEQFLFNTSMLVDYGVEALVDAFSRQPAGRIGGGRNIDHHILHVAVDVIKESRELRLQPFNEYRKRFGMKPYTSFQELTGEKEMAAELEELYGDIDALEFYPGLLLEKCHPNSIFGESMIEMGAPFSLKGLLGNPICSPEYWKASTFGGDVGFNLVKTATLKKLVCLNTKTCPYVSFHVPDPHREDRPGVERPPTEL", "assay": "Action on biosynthesis of prostaglandins in vitro", "format": "biochemical", "settings": "arachidonic acid 15×10^-6 M, incubated 30 minutes at 37° C., radioimmuno test; read-out: CI50, inhibiting activity calculated on the sum of PGE2 and PGF2 alpha", "procedure": "A. Action on biosynthesis of prostaglandins in vitro.\nArachidonic acid is converted into prostaglandins (PGs) of series 2 by a cyclo-oxygenase contained in a microsomal preparation of seminal vesicles of a bull carried out according to the Tagekuchi et al method [Mechanism of prostaglandin biosynthesis. I characterization and essay of bovine prostaglandin synthetase. Biochemistry, 1971, 10, 2372]. The precursor, at […] of 15×10^-6 M, was incubated for 30 minutes at 37° C. in the presence of a fixed concentration in proteins of the preparation of seminal vesicles and of the product of Example 1. After blocking the reaction by immersion in boiling water for one minute, then centrifuging, the prostaglandins were evaluated by radioimmuno test inspired by that of Dray et al [Radioimmunoessay of prostaglandins F, E1 and E2 in human plasma. European J. Clin. Invest., 1975 5, 311]. This enabled the PGE2 and PGF2 alpha to be evaluated specifically and the inhibiting activity of the product (CI50) is calculated on the sum of these two prostaglandins. The CI50 found was 2×10^ -6 M."}, "[2]": {"test_system": "stretchings induced by acetic acid in mice", "assay": "Analgesic activity: stretchings induced by acetic acid", "format": "in vivo", "settings": "Mus musculus, po, 0.25 h, orally half an hour before i.p. acetic acid 100 mg/kg, observation 15 minutes, read-out: DA50, dose giving a decrease of 50% in the number of stretchings", "procedure": "B. Study of analgesic activity\nThe test used was stretchings induced by acetic acid described by R. Koster et al [Fed. Proc. 1959, 1B 412] according to which the intraperitoneal injection of acetic acid induces in mice repeated stretchings and torsional movements which can persist for more than 6 hours. Analgesics prevent or decrease this syndrome which can considered as the externalization of a diffuse abdominal pain. The acetic acid was administered at a dose of 100 mg/kg or 1 ml of a 1% aqueous solution per 100 g of body weight and the compound of Example 1 was orally administered half an hour before the injection of acetic acid, the mice having been without food for 7 hours. The stretchings were observed and counted for each mouse for a period of observation of 15 minutes and the results were expressed as active dose 50 which is the dose which enabled a decrease of 50% to be obtained in the number of stretchings in comparison with the control animals. The DA50 found was 4 mg/kg."}, "[3]": {"test_system": "arthritis induced by carrageenin in rats", "assay": "Anti-inflammatory activity: arthritis induced by carrageenin", "format": "in vivo", "settings": "Rattus norvegicus, po; male rats, orally, simultaneously with carrageenin in the tibio-tarsal articulation, paw volume; read-out: DA50, dose giving a decrease in the oedema of 50%", "procedure": "C. Anti-inflammatory activity was determined by the test for arthritis induced by carrageenin in rats and 0.5 ml of a sterile suspension at 1% of carrageenin was administered in the tibio-tarsal articulation of a back paw in male rats weighing from 130 to 150 g. Simultaneously, the product of Example 1 was orally administered in a suspension of carboxymethylcellulose at 0.25% and of Tween at 0.02%. The volume of the paw was measured before the administration, then 2 hours, 4 hours, 6 hours, 8 hours and 24 hours afterwards. The intensity of the inflammation was at its highest 4 to 6 hours after the injection of carrageenin and the difference in volume of the paws of the treated animals and the control animals was evidence of the anti-inflammatory action of the medicament. The DA50 was determined, which was the dose which enabled a decrease in the oedema of 50% to be obtained."}}, "note": "pIC50: −log10 of the molar value.", "data": [{"smiles": "COc1ccc(-c2nnc3n2-c2ccccc2C(C)=NC3C)cc1", "note": "(stereo not drawn) [Example 1, 4,6-dimethyl-1-(4-methoxyphenyl)-4H-1,2,4-triazolo[4,3-a][1,4]benzodiazepine]", "values": [{"measurement": "pIC50", "setting": "[1]", "result": 5.70}, {"measurement": "ED50", "setting": "[2]", "result": 4, "unit": "mg/kg"}, {"measurement": "ED50", "setting": "[3]", "result": 50, "unit": "mg/kg"}]}]}
